The target in data set [1] is Cdk1/cycB (UniProt P06493). The data set is described as follows: Cdk1/cycB kinase assay, histone H1 substrate. The class given is biochemical, starfish. The following applies: Table 4; read-out: Cdk1, activity (IC50 for kinase inhibition). How it is done:
The inhibition of Cdk1 can be determined as follows: Cdk1/cycB: Cdk1/cycB are obtained from ProQinase, Freiburg, Germany. Starfish oocytes are induced to enter M phase of the cell cycle with 10 μM 1-methyladenine and frozen in liquid nitrogen and stored at −80° C. […] Briefly, the supernatant from oocytes is equilibrated for 30 min at 4° C. under constant rotation with the p9^CKShs-sepharose beads. The beads are extensively washed and active cdk1/cycB kinase is eluted with purified p9^CKShs (3 mg/ml). […] The assay is carried with slight modifications in 96-well plates at ambient temperature for 20 min. […] The reaction is terminated by addition of 25 μl 0.05 M EDTA pH 7.0. An aliquot of 40 μl is spotted with a multichannel dispenser on Immobilon P membranes mounted in a Millipore Microtiter filter manifold connected to a low vacuum source. After elimination of liquid, the membrane is transferred to a sequence of 4 washing baths containing 0.5% H3PO4 and one with EtOH (shaking incubation for 10 min each), dried, mounted onto a Hewlett Packard TopCount manifold added 10 μl Microscint® and counted. […] Cells were seeded at 2.5×10^7 cells per 150 mm dish and allowed to attach to a 150 mm dish for 1 hr at RT. Media (SF900II containing 10% FBS) is aspirated and recombinant baculovirus; GST-C-Raf-1, v-Ras and v-Src are added at MOI of 3.0, 2.5 and 2.5 receptively in a total volume of 4-5 mL. Cells are incubated for 1 hr at RT and then 15 mL of medium is added. Infected cells are incubated for 48-72 hr at 27° C. Infected Sf21 cells are scraped and collected into a 50 mL tube and centrifuged for 10 min at 4° C. at 1100 g in a Sorvall centrifuge. The cell pellet is washed once with ice cold PBS and lysed with 0.6 mL lysis buffer per 2.5×10^7 cells. Complete lysis of cells is achieved after 10 min on ice with occasional pipetting. […] GST-c-Raf-1 was allowed to bind to the beads at 4° C. for 1 hr with rocking. Bound GST-c-Raf-1 with beads was transferred to a column. The column is washed once with lysis buffer and twice with ice cold Tris buffered saline. Ice cold elution buffer is added and column flow is stopped to allow the free glutathione to disrupt the interaction of GST-c-Raf-1 with glutathione sepharose beads. Fractions (1 mL) are collected into pre-chilled tubes. Each tube contains 10% glycerol (final concentration) to maintain kinase activity during freeze thaw cycles. Purified fractions of GST-c-Raf-1 kinase protein are stored at −80° C.

Data set [2] concerns the target T1, human EphB4 receptor (Homo sapiens, UniProt P54760).
T1 construct: made in house; host or cells: Sf9 or Sf21 (baculovirus)
T1 sequence (P54760 566-987): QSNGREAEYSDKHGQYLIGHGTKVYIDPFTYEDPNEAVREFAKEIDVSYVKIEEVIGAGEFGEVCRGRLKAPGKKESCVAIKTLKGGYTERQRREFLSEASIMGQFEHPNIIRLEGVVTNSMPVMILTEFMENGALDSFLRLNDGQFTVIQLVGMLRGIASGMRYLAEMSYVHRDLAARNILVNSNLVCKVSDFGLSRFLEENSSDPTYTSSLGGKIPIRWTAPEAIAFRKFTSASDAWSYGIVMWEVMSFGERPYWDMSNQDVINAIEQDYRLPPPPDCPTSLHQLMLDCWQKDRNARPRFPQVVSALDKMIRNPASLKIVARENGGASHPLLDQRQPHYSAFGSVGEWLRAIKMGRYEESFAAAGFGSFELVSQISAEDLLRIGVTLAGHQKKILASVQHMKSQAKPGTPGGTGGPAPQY
The data set is described as follows: EphB4 kinase assay, GST-EphB, 33P incorporation into poly(Glu,Tyr). It counts as biochemical. An excerpt: EphB4: Production and measure of enzymatic activity: Generation of Bac-to-Bac™ (Initrogen Life Technologies, Basel, Switzerland) GST-fusion expression vectors: Entire cytoplasmatic coding regions of the EphB-class are amplified by PCR from cDNA libraries derived from human placenta or brain, respectively. Recombinant baculovirus are generated that express the amino acid region 566-987 of the human EphB4 receptor (SwissProt Database, Accession No. P54760). GST sequence is cloned into pFastBac1® vector (Invitrogen Life Technologies, Basel, Switzerland) and PCR amplified. cDNAs encoding EphB4-receptor domains, respectively, are cloned in frame 3′prime to the GST sequence into this modified FastBac1 vector to generate pBac-to-Bac™ donor vectors. Single colonies arising from the transformation are inoculated to give overnight cultures for small scale plasmid preparation. […] By automated sequencing the inserts and approximately 50 bp of the flanking vector sequences are confirmed on both strands. Production of viruses: Viruses for each of the kinases are made according to the protocol supplied by GIBCO if not stated otherwise. In brief, transfer vectors containing the kinase domains are transfected into the DH10Bac cell line (GIBCO) and plated on selective agar plates. Colonies without insertion of the fusion sequence into the viral genome (carried by the bacteria) are blue. Single white colonies are picked and viral DNA (bacmid) isolated from the bacteria by standard plasmid purification procedures. Sf9 cells or Sf21 cells are then transfected in 25 cm2 flasks with the viral DNA using Cellfectin reagent according to the protocol. Purification of GST-tagged kinases: The centrifuged cell lysate is loaded onto a 2 mL glutathione-sepharose column (Pharmacia) and washed three times with 10 mL of 25 mM Tris-HCl, pH 7.5, 2 mM EDTA, 1 mM DTT, 200 mM NaCl. The GST-tagged proteins are then eluted by 10 applications (1 mL each) of 25 mM Tris-HCl, pH 7.5, 10 mM reduced-glutathione, 100 mM NaCl, 1 mM DTT, 10% Glycerol and stored at −70° C. Protein kinase assays: The activities of protein kinases are assayed in the presence or absence of inhibitors, by measuring the incorporation of 33P from [γ33P]ATP into a polymer of glutamic acid and tyrosine (poly(Glu,Tyr)) as a substrate. The kinase assays with purified GST-EphB (30 ng) are carried out for 15-30 min at ambient temperature in a final volume of 30 μL containing 20 mM Tris.HCl, pH 7.5, 10 mM MgCl2, 3-50 mM MnCl2, 0.01 mM Na3VO4, 1% DMSO, 1 mM DTT, 3 μg/mL poly(Glu,Tyr) 4:1 (Sigma; St. Louis, Mo., USA) and 2.0-3.0 μM ATP (γ-[33P]-ATP 0.1 μCi). The assay is terminated by the addition of 20 μL of 125 mM EDTA. Subsequently, 40 μl of the reaction mixture are transferred onto Immobilon-PVDF membrane (Millipore, Bedford, Mass., USA) previously soaked for 5 min with methanol, rinsed with water, then soaked for 5 min with 0.5% H3PO4 and mounted on vacuum manifold with disconnected vacuum source. After spotting all samples, vacuum is connected and each well rinsed with 200 μl 0.5% H3PO4. Membranes are removed and washed 4× on a shaker with 1.0% H3PO4, once with ethanol. Membranes are counted after drying at ambient temperature, mounting in Packard TopCount96-well frame, and addition of 10 μL/well of Microscint™ (Packard). IC50 values are calculated by linear regression analysis of the percentage inhibition of each compound in duplicate, at four concentrations (usually 0.01, 0.1, 1 and 10 μM). One unit of protein kinase activity is defined as 1 nmole of 33P ATP transferred from [γ33P] ATP to the substrate protein per minute per mg of protein at 37° C. Compounds of formula I show EphB4 inhibition down to 10 nM, preferably IC50 values between 0.01-1.0 μM.

SMILES strings stand for the structures. pIC50: −log10 of the molar value. Read-outs that look alike come from different tables or passages of the source.

Broadly, the pIC50 is −log10 of the IC50, conventionally taken in molar units. What is called melting point is the temperature, or range, at which the solid turns liquid.

As to `COc1cccc(-c2cnc3c(-c4ccc(N5CCN(C)CC5)cc4)cnn3c2N)c1` [Example 2, 6-(3-Methoxy-phenyl)-3-[4-(4-methyl-piperazin-1-yl)-phenyl]-pyrazolo[1,5-a]pyrimidin-7-ylamine], the pIC50 in data set [1] is above 5.00. Molecule `CN(C)c1ccc(-c2cnn3c(N)c(-c4ccc(NS(=O)(=O)c5cccc(Cl)c5Cl)cc4)cnc23)cc1` [Example 10, N-{4-[7-Amino-3-(4-dimethylamino-phenyl)-pyrazolo[1,5-a]pyrimidin-6-yl]-phenyl}-2,3-dichloro-benzenesulfonamide] had a melting point of 143 to 146 °C. As for `CN(C)c1ccc(-c2cnn3c(N)c(-c4ccc(OS(=O)(=O)c5ccc(Cl)cc5)cc4)cnc23)cc1` [Example 11, 4-Chloro-benzenesulfonic acid 4-[7-amino-3-(4-dimethylamino-phenyl)-pyrazolo[1,5-a]pyrimidin-6-yl]-phenyl ester], the melting point fell in the range of 186 to 188 °C. `CN1CCN(c2cccc(-c3cnn4c(N)c(-c5ccccc5O)cnc34)c2)CC1` [Example 37, 2-{7-Amino-3-[3-(4-methyl-piperazin-1-yl)-phenyl]-pyrazolo[1,5-a]pyrimidin-6-yl}-phenol]: the negative logarithm of the IC50 (pIC50) in data set [1] is above 5.00. Consider `Cn1cc(-c2cnn3c(N)c(-c4cccc(O)c4)cnc23)c2ccccc21` [Example 45, 3-[7-Amino-3-(1-methyl-1H-indol-3-yl)-pyrazolo[1,5-a]pyrimidin-6-yl]-phenol], for which, in data set [2] (Table 4, read-out: EphB4, activity (IC50 for kinase inhibition)), the pIC50 is above 5.00. In turn, `COc1ccc(N2CCN(C)CC2)cc1-c1cnn2c(N)c(-c3cccc(Cl)c3)c(C)nc12` [Example 74, 6-(3-Chloro-phenyl)-3-[2-methoxy-5-(4-methyl-piperazin-1-yl)-phenyl]-5-methyl-pyrazolo[1,5-a]pyrimidin-7-ylamine] yielded a melting point of 116 to 121 °C. For the same molecule, in data set [2] (Table 5, read-out: EphB4, IC50 class), the pIC50 is above 6.00.

Molecule `CCN(CC)C1CCN(c2cccc(-c3cnn4c(N)c(-c5cccc(Cl)c5)c(C)nc34)c2)CC1` [Example 104, 6-(3-Chloro-phenyl)-3-[3-(4-diethylamino-piperidin-1-yl)-phenyl]-5-methyl-pyrazolo[1,5-a]pyrimidin-7-ylamine] yielded a melting point of 163 to 168 °C. Same read-out and setting: under `CCN(CC)C1CCN(c2cccc(-c3cnn4c(N)c(-c5ccc(F)cc5)c(C)nc34)c2)CC1` [Example 105, 3-[3-(4-Diethylamino-piperidin-1-yl)-phenyl]-6-(4-fluoro-phenyl)-5-methyl-pyrazolo[1,5-a]pyrimidin-7-ylamine] stands 208 to 210 °C.
